Measurements from patent US20230230698A1, “ANTIMICROBIAL CHOICE ALGORITHM FOR URINARY TRACT INFECTIONS” (Northwestern University, priority 2020, published 2023).
Where two headings read alike, the source gives them in different places.

Assays:
uropathogen [1] = assay: Urine culture antimicrobial susceptibility (Vitek 2), women outpatients with uncomplicated UTI; type: cell-based; conditions: for Overall prevalence of resistance / proportion of patients resistant: uncomplicated UTI; for Overall prevalence of resistance: 2011-2017 cohort, 9,455 positive cultures (>=10^3 CFU/mL), resistant or intermediate susceptibility; for proportion of patients resistant: 2018 testing cohort, 1,427 women, Chicago ZIP code; for proportion with culture susceptible, theoretical scenario of all patients receiving the drug / proportion with culture susceptible if everyone was prescribed the drug: 2018 cohort; for proportion with culture susceptible, theoretical scenario of all patients receiving the drug: 258 patients with prior microbiologic data; for proportion with culture susceptible, theoretical scenario of all patients being prescribed the drug: 2018 cohort, 1,169 patients without prior microbiologic data; for proportion with culture susceptible if everyone was prescribed the drug: all 1,427 patients
From the text: Data were obtained from the Northwestern Medicine Enterprise Data Warehouse, which is a data integration warehouse designed for research and clinical operations. […] Cultures were included in analysis if positive (identified uropathogen≥10^3 colony forming units per milliliter (CFU/mL)) and antimicrobial susceptibilities reported for the dominant species. The colony count cutoff of ≥10^3 CFU/mL was used as it has been noted that low thresholds have appropriate diagnostic value for women with symptoms of a UTI.^5, 17, 18 The Northwestern Medicine Institutional Review Board approved this study (STU00207763).
All specimen collection and testing were done uniformly in accordance with Northwestern Medicine Guidelines. Isolation, colony count and identification testing were performed using Vitek 2 cards (bioMérieux).
For the 2011-2017 patients, outcomes of interest were uropathogen resistance (defined as resistant or intermediate susceptibility) to SXT, NIT and CIP. Covariates were patient demographics (age, race and patient's place of residence (ZIP code)) antimicrobial prescriptions within the past two years, diagnosis codes associated with current and past encounters, past urine culture results and department to which they presented. Risk factors were compared between patients who had resistant and sensitive cultures using two-sample t-tests (continuous variables) and chi-squared tests (categorical variables). Multivariate logistic regression models were used to investigate the association between risk factors and resistant cultures. Odds ratios (OR) were derived from these models to determine the probability of having a resistant culture with those factors.
The algorithms developed using the above-described cohort were then tested on the 2018 cohort. […] All analyses were done using R (version 3.5.2).

uropathogen [2] = assay: Urine culture antimicrobial susceptibility (Vitek 2), outpatients with complicated UTI; type: cell-based; conditions: for Overall prevalence of resistance: complicated UTI outpatients, 2012-2018, 2,286 cultures (>=10^3 CFU/mL), resistant or intermediate susceptibility; for proportion of patients resistant: complicated UTI, 2017-2018 testing cohort, 646 patients, Chicago ZIP code
From the text: Materials and Methods: We performed a retrospective, single-center, cross-sectional study of 2,286 outpatients with a diagnosed complicated UTI from 2012-2018. For patients with confirmed UTI (≥10^3 CFU/mL) with antimicrobial sensitivities, univariate analyses and multivariable regression models were used to determine odds ratios for predicting resistance to SXT, NIT, CIP, CF-1, and CF-3 for the 2012-2016 data. Antimicrobial choice algorithms were created using 2012-2016 results and tested on 2017-2018 data.
This study was approved and performed in accordance with the Northwestern Medicine Institutional Review Board (STU00207763). This is a retrospective cross-sectional study of patients aged 18 or older that submitted urine cultures as outpatients from 2012 to 2018 at any Northwestern Medicine site, which encompasses the greater Chicago area. Data were obtained from the Northwestern Medicine Enterprise Data Warehouse, which is a data integration warehouse designed for research and clinical operations. […] Patients and cultures were included only if they were linked to any ICD 9 or 10 diagnosis code in the previous two years that would have been associated with a complicated UTI^6. Patients were included exactly once based on their most recent culture, and all prior culture data were used as covariates. […] Cultures were included in analysis if positive (identified uropathogen≥10^3 colony forming units per milliliter (CFU/mL)) and antimicrobial susceptibilities were reported for the dominant species. All specimen collection and testing were done uniformly in accordance with Northwestern Medicine Guidelines. Isolation, colony count and identification testing were performed using Vitek 2 cards (bioMérieux).
For the 2012 to 2016 patients, outcomes of interest were uropathogen resistance (defined as resistant or intermediate susceptibility) to trimethoprim-sulfamethoxazole (SXT), ciprofloxacin (CIP), nitrofurantoin (NIT), first-generation cephalosporin (CF-1) and third-generation cephalosporin (CF-3). The resistance prevalence was also stratified by Chicago ZIP code for each antimicrobial.
The algorithms developed using the above-described cohort were then tested on the 2017-2018 cohort. […] Also, the predictive value of time between cultures and uropathogen concurrence between cultures was examined in this cohort^10,17. All analyses were done using R (version 3.5.2).

uropathogen [3] = assay: Resistance in community acquired UTIs, uncomplicated and complicated combined; type: cell-based; conditions: 2018
From the text: The prevalence of resistance for patients with complicated UTIs was compared to data from our previous publication for uncomplicated UTIs and available hospital data^17. The prevalence of resistance by ZIP code for the complicated UTI population was then compared between each antibiotic and to the distribution of prevalence by ZIP code for the uncomplicated population for the previous study, for CIP, SXT and NIT (the three antimicrobials evaluated in the previous study)^17.

uropathogen [4] = conditions: 2018, both inpatient and outpatient cultures; cited from earlier work

Molecule	Overall prevalence of resistance (uropathogen [1])	proportion of patients resistant (uropathogen [1])	resistance, complicated UTI (uropathogen [2]; 2018, community acquired)	Overall prevalence of resistance (uropathogen [2])	proportion of patients resistant (uropathogen [2])	resistance for community acquired UTIs, both uncomplicated and complicated (uropathogen [3])	Overall prevalence of resistance (uropathogen [4])	proportion with culture susceptible, theoretical scenario of all patients receiving the drug (uropathogen [1])	proportion with culture susceptible, theoretical scenario of all patients being prescribed the drug (uropathogen [1])	proportion with culture susceptible if everyone was prescribed the drug (uropathogen [1])
O=C(O)c1cn(C2CC2)c2cc(N3CCNCC3)c(F)cc2c1=O [CIP, ciprofloxacin]	10.3%	10.7%	16.2%	19.4%	18.4%	11.2%	25%	–	–	–
trimethoprim-sulfamethoxazole [SXT]	19.4%	22.0%	–	25.5%	25.9%	–	–	72.1%	79.3%	78.0%
O=C1CN(/N=C/c2ccc([N+](=O)[O-])o2)C(=O)N1 [NIT, nitrofurantoin]	12.1%	10.0%	–	18.9%	18.1%	–	–	93.8%	89.2%	90.0%
